From patent US20120214862A1, “MODULATION OF FACTOR 7 EXPRESSION” (ISIS Pharmaceuticals, Inc., priority 2009, published 2012)
In the oligonucleotide strings, read from the 5' end, every base follows the letter of its sugar. An asterisk marks phosphorothioate; unmarked linkages are phosphodiester. Other units and linkages are bracketed, terminal groups are in braces. A string of capitals states the bases alone. e = 2'-O-(2-methoxyethyl) (MOE); [5mC] = 5-methylcytosine; d = 2'-deoxy (DNA)

What was measured:
platelet factor-4 (PF-4) = experiment: FeCl3 induced venous thrombosis (VT) model, real-time RT-PCR quantification of PF-4 in vena cava as measure of thrombus formation; assay type: in vivo, mouse; conditions: for PF-4 (percent of PF-4 mRNA as compared to the PBS + FeCl3 control): BALB/c mice, no ISIS 403102
Method: Two control groups of BALB/c mice were treated with PBS, administered subcutaneously twice a week for 3 weeks. Thrombus formation was induced with FeCl3 in half of the mice while the rest of the mice were assayed for tail bleeding. […] Thrombus formation was induced with FeCl3 in all groups of the VT mice except the first control group.
(§1) In mice undergoing FeCl3 treatment, thrombus formation was induced by applying a piece of filter paper (2×4 min) pre-saturated with 10% FeCl3 solution directly on the vena cava. After 3 minutes of exposure, the filter paper was removed. Thirty minutes after the filter paper application, a fixed length of the vein containing the thrombus was dissected out for platelet analysis. Liver was collected for RNA analysis.
(§2) Real-time RT-PCR quantification of platelet factor-4 (PF-4) was used to quantify platelets in the vena cava as a measure of thrombus formation.
Six additional groups of BALB/c mice was treated with 0.5 mg/kg, 1 mg/kg, 2 mg·kg, 3 mg/kg, 4 mg/kg, or 5 mg/kg of warfarin, administered intraperioneally daily for 6 days. Four hours after the last dose of warfarin, mice were sacrificed. A control group of BALB/c mice were treated with PBS, administered subcutaneously twice a week for 3 weeks. Two days after the last dose of PBS, mice were anesthetized with 150 mg/kg ketamine mixed with 10 mg/kg xylazine administered by intraperitoneal injection. Thrombus formation was induced with FeCl3 in groups of mice except the first control group.
as §1, with “mm)” for “min)”
as §2
Thrombus formation was induced with FeCl3 in all of the mice except the first […] control groups. All mice were anesthetized with 150 mg/kg of ketamine mixed with 10 mg/kg of xylazine administered by intraperitoneal injection.
After 3 minutes of exposure, the filter paper was removed. Thirty minutes after the filter paper application, a fixed length of the vein containing the thrombus was dissected out for platelet analysis.
Real-time PCR quantification of PF-4 was used to quantify platelets in the vena cava as a measure of thrombus formation. […] Data is presented as percent of PF-4 mRNA as compared to the PBS+ FeCl3 control, […]

human Factor 7 mRNA [1] = experiment: Dose-dependent antisense inhibition of human Factor 7 in HepB3 cells, transfection with lipofectin; assay type: cell-based; conditions: lipofectin, HepB3 cells, 16 hours
Outline: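 HepB3 cells (4,000/well) lipofectin-transfected with antisense oligonucleotide at 3.125 or 6.25 up to 100 nM for ~16 h. Factor 7 mRNA measured by real-time RT-PCR with primer probe set RTS 2927, adjusted to RIBOGREEN total RNA; expressed as percent inhibition versus untreated control cells.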

human Factor 7 mRNA [2] = experiment: Antisense inhibition of human Factor 7 mRNA in HepB3 cells, lipofectin, 50 nM, real-time RT-PCR; assay type: cell-based; conditions: HepB3 cells
Outline: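 Percent inhibition of Factor 7 mRNA, relative to untreated control, comes from real-time RT-PCR with RIBOGREEN normalization, using primer probe set RTS 2927 in some runs. RNA was taken roughly 24 h after lipofectin delivery of 50 nM oligonucleotide into HepB3 cells.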

human Factor 7 mRNA [3] = experiment: Dose-dependent antisense inhibition of human Factor 7 in HepB3 cells, transfection with electroporation; assay type: cell-based
Method: (§3) The gapmers were also transfected via electroporation and their dose-dependent inhibition of human Factor 7 mRNA was measured. Cells were plated at a density of 20,000 cells per well and transfected via electroporation with 3.125 μM, 6.25 μM, 12.5 μM, 25 μM, 50 μM, and 100 μM concentrations of antisense oligonucleotide, as specified in Table 15. After a treatment period of approximately 16 hours, RNA was isolated from the cells and Factor 7 mRNA levels were measured by quantitative real-time PCR. Human Factor 7 primer probe set RTS 2927 was used to measure mRNA levels. Factor 7 mRNA levels were adjusted according to total RNA content, as measured by RIBOGREEN®. Results are presented as percent inhibition of Factor 7, relative to untreated control cells.
as §3, with “Cells were” for “The gapmers were also transfected via electroporation and their dose-dependent inhibition of human Factor 7 mRNA was measured. Cells were”, “in Table 16. After a” for “in Table 15. After a”, “cells and human Factor 7” for “cells and Factor 7”

[4] = 3.125 μM, 16 hours (Example 7, Table 15)
[5] = 3.125 μM, 16 hours (Example 8, Table 16)
[6] = 6.25 μM, 16 hours (Example 7, Table 15)
[7] = 6.25 μM, 16 hours (Example 8, Table 16)
[8] = 12.5 μM, 16 hours (Example 7, Table 15)
[9] = 12.5 μM, 16 hours (Example 8, Table 16)
[10] = 25 μM, 16 hours (Example 7, Table 15)
[11] = 25 μM, 16 hours (Example 8, Table 16)
[12] = 50 μM, 16 hours (Example 7, Table 15)
[13] = 50 μM, 16 hours (Example 8, Table 16)
[14] = 100 μM, 16 hours (Example 7, Table 15)
[15] = 100 μM, 16 hours (Example 8, Table 16)
[16] = gapmers targeted to nucleobases 15188 to 15211 of SEQ ID NO: 1 (Table 13)
[17] = gapmers (5-10-5, 3-14-3, 2-13-5 MOE) targeted to nucleobases 4868 to 4899 of SEQ ID NO: 1

| Compound | percent inhibition of Factor 7 mRNA, relative to untreated control cells (human Factor 7 mRNA [1]; 3.125 nM) [%] | percent inhibition of Factor 7 mRNA, relative to untreated control cells (human Factor 7 mRNA [1]; 12.5 nM) [%] | percent inhibition of Factor 7 mRNA, relative to untreated control cells (human Factor 7 mRNA [1]; 25 nM) [%] | percent inhibition of Factor 7 mRNA, relative to untreated control cells (human Factor 7 mRNA [1]; 50 nM) [%] | percent inhibition of Factor 7 mRNA, relative to untreated control cells (human Factor 7 mRNA [1]; 100 nM) [%] | percent inhibition of Factor 7 mRNA, relative to untreated control cells (human Factor 7 mRNA [1]) [%] | percent inhibition of Factor 7 mRNA, relative to untreated control cells (human Factor 7 mRNA [3]; [4]) [%] | percent inhibition of Factor 7 mRNA, relative to untreated control cells (human Factor 7 mRNA [3]; [5]) [%] | percent inhibition of Factor 7 mRNA, relative to untreated control cells (human Factor 7 mRNA [3]; [6]) [%] | percent inhibition of Factor 7 mRNA, relative to untreated control cells (human Factor 7 mRNA [3]; [7]) [%] | percent inhibition of Factor 7 mRNA, relative to untreated control cells (human Factor 7 mRNA [3]; [8]) [%] | percent inhibition of Factor 7 mRNA, relative to untreated control cells (human Factor 7 mRNA [3]; [9]) [%] | percent inhibition of Factor 7 mRNA, relative to untreated control cells (human Factor 7 mRNA [3]; [10]) [%] | percent inhibition of Factor 7 mRNA, relative to untreated control cells (human Factor 7 mRNA [3]; [11]) [%] | percent inhibition of Factor 7 mRNA, relative to untreated control cells (human Factor 7 mRNA [3]; [12]) [%] | percent inhibition of Factor 7 mRNA, relative to untreated control cells (human Factor 7 mRNA [3]; [13]) [%] | percent inhibition of Factor 7 mRNA, relative to untreated control cells (human Factor 7 mRNA [3]; [14]) [%] | percent inhibition of Factor 7 mRNA, relative to untreated control cells (human Factor 7 mRNA [3]; [15]) [%] | % Inhibition of human Factor 7 mRNA levels (human Factor 7 mRNA [2]; [16]) [%] | % Inhibition of human Factor 7 mRNA levels (human Factor 7 mRNA [2]; [17]) [%] | other results |
| --- | --- | --- | --- | --- | --- | --- | --- | --- | --- | --- | --- | --- | --- | --- | --- | --- | --- | --- | --- | --- | --- |
| COC(=O)[C@H](c1ccccc1Cl)N1CCc2sccc2C1 [Plavix, clopidogrel, reference compound] | – | – | – | – | – | – | – | – | – | – | – | – | – | – | – | – | – | – | – | – | PF-4 (percent of PF-4 mRNA as compared to the PBS + FeCl3 control) (platelet factor-4 (PF-4); FeCl3, Plavix 6.25 mg/kg): 61%; PF-4 (percent of PF-4 mRNA as compared to the PBS + FeCl3 control) (platelet factor-4 (PF-4); FeCl3, Plavix 12.50 mg/kg): 24%; PF-4 (percent of PF-4 mRNA as compared to the PBS + FeCl3 control) (platelet factor-4 (PF-4); FeCl3, Plavix 25.00 mg/kg): 13%; PF-4 (percent of PF-4 mRNA as compared to the PBS + FeCl3 control) (platelet factor-4 (PF-4); FeCl3, Plavix 50.00 mg/kg): 6%; PF-4 in comparison to the PBS control (platelet factor-4 (PF-4); Example 22, Plavix 6.25-50.00 mg/kg, three doses over two days): reduction of PF-4 |
| 422130 (antisense eG*e[5mC]*e[5mC]*eT*eG*dA*dG*dG*d[5mC]*d[5mC]*dA*dG*d[5mC]*dA*dG*eA*eT*e[5mC]*eA*e[5mC]) [compound 422130] | 4 | 34 | 59 | 77 | 85 | 15 | 28 | 14 | 29 | 24 | 59 | 61 | 61 | 68 | 73 | 82 | 86 | 88 | – | – | % Inhibition of human Factor 7 mRNA levels (human Factor 7 mRNA [2]; gapmers targeted to nucleobases 14707 to 14732 of SEQ ID NO: 1 (Table 11)): 79% |
| 422228 (antisense eT*eG*d[5mC]*dA*dT*dG*dG*dT*dG*dA*dT*dG*d[5mC]*dT*dT*e[5mC]*eT*eG*eA*eA) [compound 422228] | 17 | 43 | 60 | 78 | 90 | 25 | 18 | – | 33 | – | 40 | – | 47 | – | 71 | – | 83 | – | 73 | – | – |
| 422087 (antisense e[5mC]*eA*eT*eG*e[5mC]*dA*dT*dG*dG*dT*dG*dA*dT*dG*d[5mC]*eT*eT*e[5mC]*eT*eG) [compound 422087] | 14 | 51 | 73 | 83 | 90 | 24 | 22 | 19 | 26 | 38 | 48 | 66 | 57 | 75 | 72 | 80 | 80 | 87 | 83 | – | – |
| 422292 (antisense eG*eT*dT*d[5mC]*dT*dG*d[5mC]*dA*dG*dG*dA*dG*d[5mC]*dG*dG*e[5mC]*e[5mC]*eT*eA*eA) [compound 422292] | 13 | 44 | 63 | 81 | 83 | 21 | 36 | 31 | 25 | 40 | 47 | 68 | 59 | 75 | 75 | 82 | 86 | 83 | – | 75 | – |
| 422217 (antisense eG*eA*eG*dT*dT*d[5mC]*dT*dG*d[5mC]*dA*dG*dG*dA*dG*d[5mC]*dG*dG*e[5mC]*e[5mC]*eT) [compound 422217] | 8 | 45 | 63 | 79 | 83 | 18 | 15 | – | 19 | – | 29 | – | 55 | – | 61 | – | 83 | – | – | 75 | – |
